Tested on: 377384-186-R-J1-PDC complex spheroid viability
Assay: Anticancer human tumor 377384-186-R-J1-PDC patient-derived pancreatic carcinoma cell line growth inhibition [RAS]
Conditions: for IC50: curve of first compound; for viability, T/C: stronger effect = lower value
Summary of the method: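 Tumour cells grown as complex spheroids with HUVEC endothelial cells and mesenchymal stem cells, treated with RAS pathway inhibitor combinations. Each agent spans half-log steps from near clinical Cmax, or 10 microM where Cmax is unknown.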
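Also: spheroids exposed to compounds for seven days before readout.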

`Nc1ccn(C2OC(CO)C(O)C2(F)F)c(=O)n1` (configuration not stated) + C#Cc1c(F)ccc2cc(O)cc(-c3ncc4c(N5CC6CCC(C5)N6)nc(OCC56CCCN5CC(F)C6)nc4c3F)c12 was tested, and the IC50 (second compound 0.0316 µM) was under 3.16 nM, the IC50 (second compound 0.1 µM) was under 3.16 nM and the IC50 (second compound 0.316 µM) was under 3.16 nM. For the same molecule, the IC50 (second compound 1 µM) was under 3.16 nM, the IC50 (second compound 3.16 µM) was under 3.16 nM and the IC50 (second compound 10 µM) was under 3.16 nM. The viability, T/C (second compound 0.0316 µM, first compound 0.00316 µM) was 18.7%, the viability, T/C (second compound 0.0316 µM, first compound 0.01 µM) was 10.9% and the viability, T/C (second compound 0.0316 µM, first compound 0.0316 µM) was 5.1%. The viability, T/C (second compound 0.0316 µM, first compound 0.1 µM) was 2.32%, the viability, T/C (second compound 0.0316 µM, first compound 0.316 µM) was 1.53% and the viability, T/C (second compound 0.0316 µM, first compound 1 µM) was 1.48%. For the same molecule, the viability, T/C (second compound 0.1 µM, first compound 0.00316 µM) was 10.6%, the viability, T/C (second compound 0.1 µM, first compound 0.01 µM) was 5.99% and the viability, T/C (second compound 0.1 µM, first compound 0.0316 µM) was 3.67%. For the same molecule, the viability, T/C (second compound 0.1 µM, first compound 0.1 µM) was 2.25%, the viability, T/C (second compound 0.1 µM, first compound 0.316 µM) was 1.8% and the viability, T/C (second compound 0.1 µM, first compound 1 µM) was 1.59%. The viability, T/C (second compound 0.316 µM, first compound 0.00316 µM) was 3.96%, the viability, T/C (second compound 0.316 µM, first compound 0.01 µM) was 3.01% and the viability, T/C (second compound 0.316 µM, first compound 0.0316 µM) was 2.14%. It also gave a viability, T/C (second compound 0.316 µM, first compound 0.1 µM) of 1.91%, a viability, T/C (second compound 0.316 µM, first compound 0.316 µM) of 1.53% and a viability, T/C (second compound 0.316 µM, first compound 1 µM) of 1.47%. For the same molecule, the viability, T/C (second compound 1 µM, first compound 0.00316 µM) was 2.36%, the viability, T/C (second compound 1 µM, first compound 0.01 µM) was 2.41% and the viability, T/C (second compound 1 µM, first compound 0.0316 µM) was 1.7%. For the same molecule, the viability, T/C (second compound 1 µM, first compound 0.1 µM) was 1.46%, the viability, T/C (second compound 1 µM, first compound 0.316 µM) was 1.44% and the viability, T/C (second compound 1 µM, first compound 1 µM) was 1.36%. It also gave a viability, T/C (second compound 3.16 µM, first compound 0.00316 µM) of 2.1%, a viability, T/C (second compound 3.16 µM, first compound 0.01 µM) of 1.41% and a viability, T/C (second compound 3.16 µM, first compound 0.0316 µM) of 1.83%. For the same molecule, the viability, T/C (second compound 3.16 µM, first compound 0.1 µM) was 1.8%, the viability, T/C (second compound 3.16 µM, first compound 0.316 µM) was 1.48% and the viability, T/C (second compound 3.16 µM, first compound 1 µM) was 1.3%. For the same molecule, the viability, T/C (second compound 10 µM, first compound 0.00316 µM) was 1.37%, the viability, T/C (second compound 10 µM, first compound 0.01 µM) was 1.08% and the viability, T/C (second compound 10 µM, first compound 0.0316 µM) was 1.21%. For the same molecule, the viability, T/C (second compound 10 µM, first compound 0.1 µM) was 1.3%, the viability, T/C (second compound 10 µM, first compound 0.316 µM) was 1.62% and the viability, T/C (second compound 10 µM, first compound 1 µM) was 1.15%.
